The text below walks through data of patent US11291947B2, “Composition for removing sulfur-containing compound” (KURARAY CO., LTD., priority 2016, dated 2022).

Data set [1] in a line: Hydrogen sulfide removal in kerosene (three-neck flask). The settings on record: 20 g kerosene, 1.5 g added, room temperature, 5 hours. As to the method:
20 g of kerosene (available from FUJIFILM Wako Pure Chemical Corporation) was put into a 50-mL three-neck flask, and a mixed gas having a composition of 1 vol % of hydrogen sulfide and 99 vol % of nitrogen was made to circulate therein at a flow rate of 50 mL/min to thereby purge the vapor in the three-neck flask with stirring at 800 rpm. After 2 hours, the circulation of the mixed gas was stopped, then the three-neck flask was sealed up, and the hydrogen sulfide concentration in the vapor phase part in the three-neck flask was measured with a Kitagawa gas detector and was 8,200 ppm by volume. Next, 1.5 g of SAL was added thereto and reacted for 5 hours at room temperature with stirring the apparatus at 800 rpm. After the reaction, the hydrogen sulfide concentration in the vapor phase part in the three-neck flask was measured and was 5,300 ppm by volume. The removal rate was 35%.
After the reaction, the hydrogen sulfide concentration in the vapor phase part in the three-neck flask was measured and was 6,600 ppm by volume. The removal rate was 20%.

Another data set concerns Rat. The settings on record: versus acrolein; cited from earlier work.
The nature of data set [2]: Hydrogen sulfide removal in distilled water (autoclave). The conditions noted are these: distilled water, 5,000 ppm added, 80° C., 5 hours. The protocol: 20 g of distilled water was put into a 100-mL autoclave equipped with a thermometer and a stirrer, and pressurized up to 0.3 MPa with a mixed gas having a composition of 1 vol % of hydrogen sulfide and 99 vol % of nitrogen introduced thereinto. This was stirred until the hydrogen sulfide concentration in the vapor phase part became constant, and then the hydrogen sulfide concentration in the vapor phase part in the autoclave was measured with a Kitagawa gas detector (here, a […] available from Komyo Rikagaku Kogyo K.K. was attached to the gas collector “AP-20”), and was 7,500 ppm by volume. Next, SAL was added thereto in an amount to be 5,000 ppm relative to the distilled water. The amount of SAL added was 1.19 mmol, and the amount of hydrogen sulfide existing in the apparatus was 0.10 mmol. Subsequently, the apparatus was heated up to 80° C. with stirring at 800 rpm to continue the reaction for 5 hours. After the reaction, the system was cooled down to room temperature, and the hydrogen sulfide concentration in the vapor phase part was measured and was 5,000 ppm by volume. The removal rate was 33%.
The same test as in Example 2 was carried out except that acrolein was used in place of SAL. After the reaction, the hydrogen sulfide concentration in the vapor phase part was measured and was 5,000 ppm by volume. The removal rate was 33%.

The format of data set [3] is physicochemical. The protocol: 50 mL of each of SAL and acrolein was charged in 50-mL three-necked flask, and the contents were subjected to temperature rise to 50° C. in a nitrogen atmosphere. On the occasion when the content of each of SAL and acrolein immediately after the temperature rise was defined as 100%, a change of the content ratio was observed according to the calibration curve method by means of gas chromatography with an internal standard.
[Gas Chromatography Analysis]
Analysis Instrument: GC-14A (Available from Shimadzu Corporation) Detector: FID (Hydrogen Flame Ionization Detector)
Column used: DB-1701 (length: 50 m, film thickness: 1 μm, inner diameter: 0.32 mm) (available from Agilent Technologies)
Analysis conditions: Injection temperature: 250° C., detection temperature: 250° C.
Temperature rise conditions: 70° C.→(temperature rise at 5° C./min)→250° C.
Internal standard substance: Diglyme (diethylene glycol dimethyl ether)

Data set [4] is classed as physicochemical. The conditions noted are these: pH 1.7. As to the method: Each of SAL and acrolein was dissolved in 0.5 mol/L of phosphoric acid buffer solutions having a pH different from each other, thereby preparing 0.1 wt % solutions. 50 mL of each of the solutions was charged in a sample vial in a nitrogen atmosphere and stored at 23±2° C. On the occasion when the content of each of SAL and acrolein at the time of preparation was defined as 100%, a change of the content ratio was observed according to the absolute calibration curve by means of high-performance liquid chromatography analysis.
[Preparation of Phosphoric Acid Buffer Solution]
pH 1.7: 4.9 g of 75% phosphoric acid and 7.8 g of sodium dihydrogen phosphate dihydrate were dissolved in 200 mL of distilled water.
pH 6.2: 7.8 g of sodium dihydrogen phosphate dihydrate and 7.1 g of disodium hydrogen phosphate were dissolved in 200 mL of distilled water.
pH 8.1: 0.3 g of sodium dihydrogen phosphate dihydrate and 13.9 g of disodium hydrogen phosphate were dissolved in 200 mL of distilled water.
[High-Performance Liquid Chromatography Analysis]
Analysis Instrument: Prominence System (Available from Shimadzu Corporation)
Column used: Cadenza CD-C18 (length: […], inner diameter: 4.6 mm)
Developing solution: H2O/MeOH=45/55 (volume ratio), H3PO4=1 mol/L

The conditions of data set [5]: cited from earlier work.
Where [6] appears, read: 50° C., nitrogen atmosphere, 0 hour (defined as 100%).
The mark [7] stands for this setting: 50° C., nitrogen atmosphere, 2 hours elapsed.
The mark [8] stands for this setting: 50° C., nitrogen atmosphere, 4 hours elapsed.
The mark [9] stands for this setting: 50° C., nitrogen atmosphere, 6 hours elapsed.
Where [10] appears, read: 50° C., nitrogen atmosphere, 10 hours elapsed.

Like-named read-outs stand apart in the source and are kept apart here.

On to `CC(C)=CCCC(C)=CC=O` [Citral, 3,7-dimethyl-2,6-octadienal], for which, in data set [1], the removal rate is 20%. Also, the “toxicity and safety (comparison in words)” value with Rat is “extremely low in the toxicity and safe as compared with acrolein”.

For `CC(C)=CC=O` [SAL, 3-methyl-2-butenal], the removal rate in data set [2] was found to be 33%; in data set [1], 35%. Also, the “thermal stability (comparison in words)” value in data set [3] is “extremely high in the thermal stability as compared with acrolein”. In addition, the content ratio in data set [3] (setting [6]) was 100.0%; in data set [3] (setting [7]), 100.0%; in data set [3] (setting [8]), 100.0%; in data set [3] (setting [9]), 100.0%; in data set [3] (setting [10]) it was 99.9%. In addition, in data set [4], the “pH stability (comparison in words)” value was “extremely high in the pH stability as compared with acrolein”. The “Fire Service Act water solubility class” value in data set [5] is given as “water-insoluble”. Also, the “toxicity and safety (comparison in words)” value in the data set on Rat was “extremely low in the toxicity and safe as compared with acrolein”.

`C=CC=O` [Acrolein, acrolein, reference compound]: the removal rate in data set [2] came out at 33%. The content ratio in data set [3] (setting [6]) is on record as 100.0%; in data set [3] (setting [7]), 99.5%; in data set [3] (setting [8]), 98.3%; in data set [3] (setting [9]), 98.1%; in data set [3] (setting [10]) it was 96.6%. The ratio lost in data set [3] (50° C., nitrogen atmosphere, after 10 hours) is reported as 3.4%. For the same compound, the “Fire Service Act water solubility class” value in data set [5] is given as “water-insoluble”.
